Consider one compound from patent US20250357519A1, “APPLICATIONS OF O2-INSENSITIVE FORMATE DEHYDROGENASE” (UNIVERSITY OF MARYLAND, BALTIMORE, priority 2022, published 2025).

Assay [1] addresses T1, Desulfovibrio vulgaris Hildenborough (DvH) FDH2, recombinant Strep-tag II-tagged (FDH2^Rec), large subunit DVU2482 SEQ ID NO: 31, small subunit DVU2481 SEQ ID N (Nitratidesulfovibrio vulgaris, UniProt Q728X0).
T1 sequence (Q728X0 36-1003): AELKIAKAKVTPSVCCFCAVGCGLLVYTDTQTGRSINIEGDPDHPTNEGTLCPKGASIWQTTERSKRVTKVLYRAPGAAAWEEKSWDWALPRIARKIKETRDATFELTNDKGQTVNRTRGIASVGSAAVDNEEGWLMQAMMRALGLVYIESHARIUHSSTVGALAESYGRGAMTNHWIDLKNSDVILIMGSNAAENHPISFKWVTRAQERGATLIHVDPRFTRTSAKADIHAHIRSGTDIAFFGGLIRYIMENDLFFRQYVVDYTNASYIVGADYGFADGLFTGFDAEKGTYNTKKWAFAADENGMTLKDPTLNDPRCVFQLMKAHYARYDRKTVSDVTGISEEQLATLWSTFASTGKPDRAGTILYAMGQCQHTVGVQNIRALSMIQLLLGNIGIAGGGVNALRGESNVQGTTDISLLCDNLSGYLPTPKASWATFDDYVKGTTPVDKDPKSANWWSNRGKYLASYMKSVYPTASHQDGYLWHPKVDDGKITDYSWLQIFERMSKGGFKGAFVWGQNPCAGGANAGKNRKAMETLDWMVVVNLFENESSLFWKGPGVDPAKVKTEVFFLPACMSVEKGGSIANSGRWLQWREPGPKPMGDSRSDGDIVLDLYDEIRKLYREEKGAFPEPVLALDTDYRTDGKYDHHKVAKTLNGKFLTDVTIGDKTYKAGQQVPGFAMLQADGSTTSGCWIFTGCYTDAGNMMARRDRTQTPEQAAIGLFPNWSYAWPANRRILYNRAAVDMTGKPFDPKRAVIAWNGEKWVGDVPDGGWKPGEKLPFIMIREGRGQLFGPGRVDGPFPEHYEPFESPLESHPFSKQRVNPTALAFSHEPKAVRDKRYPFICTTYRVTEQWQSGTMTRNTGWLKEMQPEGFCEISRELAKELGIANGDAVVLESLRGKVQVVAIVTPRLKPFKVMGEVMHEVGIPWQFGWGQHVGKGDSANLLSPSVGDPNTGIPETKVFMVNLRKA
T1 sequence (Q728X1 1-260 partner): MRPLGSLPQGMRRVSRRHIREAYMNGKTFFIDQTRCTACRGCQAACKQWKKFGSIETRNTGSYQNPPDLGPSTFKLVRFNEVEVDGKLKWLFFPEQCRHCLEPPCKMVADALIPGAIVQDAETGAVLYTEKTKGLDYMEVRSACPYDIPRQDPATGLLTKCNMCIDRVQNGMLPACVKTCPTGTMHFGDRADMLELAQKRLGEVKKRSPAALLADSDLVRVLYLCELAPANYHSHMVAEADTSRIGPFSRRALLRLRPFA
In words: PES/DCPIP assay of formate oxidation.

For assay [2], the system named is Desulfovibrio desulfuricans (Dd) Mo-FDH3, wild-type natively-purified (Mo-FDH3^WT). To be noted: cited from earlier work.
Assay [3] deals with T2, Desulfovibrio vulgaris Hildenborough (DvH) W-FDH1, recombinant (W-FDH1^REC), large subunit DVU0587 SEQ ID NO: 29, small subunit DVU0588 SEQ ID NO: 30 (Nitratidesulfovibrio vulgaris, UniProt Q72EJ1).
T2 construct: mature large subunit lacks Tat signal peptide; literature data of Oliveira et al. reanalysed
T2 sequence (Q72EJ1 36-1005): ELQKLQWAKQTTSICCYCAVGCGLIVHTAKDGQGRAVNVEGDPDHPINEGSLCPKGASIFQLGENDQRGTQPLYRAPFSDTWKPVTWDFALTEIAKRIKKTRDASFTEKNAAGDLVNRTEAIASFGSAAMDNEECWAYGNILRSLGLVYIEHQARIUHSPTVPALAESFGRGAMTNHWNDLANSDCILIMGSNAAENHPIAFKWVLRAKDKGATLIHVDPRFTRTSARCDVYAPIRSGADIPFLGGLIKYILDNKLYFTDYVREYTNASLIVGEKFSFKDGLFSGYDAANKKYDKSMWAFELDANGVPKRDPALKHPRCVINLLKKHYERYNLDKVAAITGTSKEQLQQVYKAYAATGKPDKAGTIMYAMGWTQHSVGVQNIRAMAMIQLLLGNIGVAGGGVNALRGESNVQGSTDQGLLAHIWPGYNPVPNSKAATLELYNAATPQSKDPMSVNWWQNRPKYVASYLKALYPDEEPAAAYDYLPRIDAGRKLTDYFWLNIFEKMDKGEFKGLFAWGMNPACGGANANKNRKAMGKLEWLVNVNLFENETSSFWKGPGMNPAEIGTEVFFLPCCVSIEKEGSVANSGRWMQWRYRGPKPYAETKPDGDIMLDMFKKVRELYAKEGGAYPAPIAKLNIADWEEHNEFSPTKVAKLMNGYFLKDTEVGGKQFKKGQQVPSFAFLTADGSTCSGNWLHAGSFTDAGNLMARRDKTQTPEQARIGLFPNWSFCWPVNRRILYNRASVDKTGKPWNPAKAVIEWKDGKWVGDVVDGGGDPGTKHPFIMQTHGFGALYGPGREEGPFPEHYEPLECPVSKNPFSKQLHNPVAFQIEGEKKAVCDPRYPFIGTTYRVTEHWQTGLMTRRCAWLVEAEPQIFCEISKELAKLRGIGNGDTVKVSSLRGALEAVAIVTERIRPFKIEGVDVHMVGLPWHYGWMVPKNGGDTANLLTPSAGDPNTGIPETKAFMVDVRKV
T2 sequence (Q72EJ0 1-236 partner): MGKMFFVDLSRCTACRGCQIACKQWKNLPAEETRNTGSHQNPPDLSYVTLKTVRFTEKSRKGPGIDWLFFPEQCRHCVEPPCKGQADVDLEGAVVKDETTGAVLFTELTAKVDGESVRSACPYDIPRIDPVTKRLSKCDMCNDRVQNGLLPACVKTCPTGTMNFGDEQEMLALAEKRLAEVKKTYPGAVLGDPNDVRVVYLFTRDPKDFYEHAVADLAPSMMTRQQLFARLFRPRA
Particulars: cited from earlier work.

Where [4] appears, read: pH 7.6, 37 °C, 7.5 mM BV, 35 nM enzyme, Rivas et al (2007).
The mark [5] stands for this setting: pH 8.0, 22 °C, 5 mM BV, 1 nM enzyme, Maia et al (2016).
Where [6] appears, read: pH 8.0, 37 °C, 7.5 mM BV, 35 nM enzyme, Mota (2011).
Setting [7] is: pH 7.6, RT, 2 mM BV, 1.4 nM enzyme, Oliveira et al (2020).

Where two headings read alike, the source gives them in different places.

For `O=CO` [formate], the kcat was 354 ± 5 s⁻¹ in assay [1] (DCPIP (air), full progress curve global fit); 258 ± 3 s⁻¹ in assay [1] (DCPIP (anaerobic), full progress curve global fit); 317 ± 14 s⁻¹ in assay [1] (PES/DCPIP, air, initial velocities, 10 replicates, pH 8.0); 220 ± 5 s⁻¹ in assay [1] (PES/DCPIP, anaerobic, initial velocities, 5 replicates, pH 8.0); 357 ± 18 s⁻¹ in assay [2] (setting [4]); 543 s⁻¹ in assay [2] (setting [5]). In addition, the kcat was 347 s⁻¹ in assay [2] (setting [6]); 1144 s⁻¹ in assay [3] (pH 7.6, RT, 2 mM BV, 1.4 nM enzyme, Alvarez-Malmagro et al (2021)); 1100 s⁻¹ in assay [3] (pH 7.6, RT, 2 mM BV, 1.4 nM enzyme, Miller et al (2018)); 1310 ± 50 s⁻¹ in assay [3] (setting [7]); 940 s⁻¹ in assay [3] (pH 7.6, RT, 2 mM BV, 1.4 nM enzyme, Szczesny et al (2019)). Further, in assay [1] (PES/DCPIP, anaerobic full-progress curves vs 2 mM BV), the “TN (kcat) relative to that obtained with 2 mM BV” value is approximately 5 fold. For the same compound, in assay [1] (PES/DCPIP, comparator with NAD^+ as acceptor (ref 40)), the “TN (kcat) for formate oxidation relative to Mo-Cys-FDH from Rhodobacter capsulatus” value was “roughly an order of magnitude”. For the same compound, the “binding constant (Km) for formate” value in assay [1] (general statement, 1.6 nM enzyme, formate 0 to 100 μM) is “low micromolar range”. The Km is 65 ± 8 µM in assay [2] (setting [4]); 57 µM in assay [2] (setting [5]); 64 µM in assay [2] (setting [6]); 16.9 ± 2.8 µM in assay [3] (setting [7]); 17 µM in assay [3] (value reported by Oliveira et al., as cited in text, BV).

For orientation: kcat means the maximal rate divided by the concentration of active sites. Broadly, the Km is the concentration of substrate that gives half-maximal velocity.
